The target in assay [1] is T1, recombinant human B1 receptors (Homo sapiens, UniProt P46663).
T1 construct: host or cells: CHO (CHO-B1)
T1 sequence (P46663 1-353): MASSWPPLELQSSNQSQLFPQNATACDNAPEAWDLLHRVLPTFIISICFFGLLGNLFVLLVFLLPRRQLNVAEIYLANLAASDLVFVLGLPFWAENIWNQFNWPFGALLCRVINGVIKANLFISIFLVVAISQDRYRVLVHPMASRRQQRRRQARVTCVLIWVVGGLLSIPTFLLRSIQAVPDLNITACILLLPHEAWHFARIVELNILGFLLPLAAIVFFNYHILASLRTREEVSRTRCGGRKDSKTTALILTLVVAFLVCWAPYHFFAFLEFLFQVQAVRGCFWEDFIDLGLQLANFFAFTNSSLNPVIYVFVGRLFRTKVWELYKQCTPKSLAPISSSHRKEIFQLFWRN
Put plainly: Functional assay: antagonist potency by cytosolic calcium measurement (fluo-4, plate reader fluorimeter) in CHO-B1 cells. The assay is classed as cell-based. How it is done:
Assessment of Antagonist Potency at B1 and B2 Receptors In Vitro by Measurement of Cytosolic Calcium Ion Concentration with a Plate Reader Fluorimeter in Cells Expressing Recombinant Human B1 or B2 Receptors
Chinese hamster ovary (CHO) cells stably expressing recombinant human B1 (CHO-B1, Euroscreen) or B2 (CHO-B2, Perkin-Elmer) receptors were cultured in Dulbecco's Modified Eagle's Medium (DMEM) containing 10% Fetal Calf Serum (FCS), 100 U/ml penicillin, 0.1 mg/ml streptomycin, 0.25 μg/ml amphotericin B, 1% Minimum Essential Medium Eagle (MEM), non essential amino acid solution, […], 1% pyruvate (for the B2 cell line). Cells were kept at 37° C. in a humidified incubator in an atmosphere of 5% CO2/95% air and were passaged 1:4 three times a week. Cells were plated at 1.5-2.5×10^4 cell/well on standard 96-well microplates, measurements of cytosolic calcium ion concentration ([Ca^2+]i) were carried out 1-2 days after cell plating.
Measurements of [Ca^2+]i were carried out on CHO-B1 and CHO-B2 cells stably expressing human B1 and B2 receptors, respectively. Cells were grown in standard 96-well microplates and before the measurement were loaded with a fluorescent Ca^2+-sensitive dye, fluo-4/AM (2 μM): after removing the culture medium the dye was added to the cells (dissolved in assay buffer: 145 mM NaCl, 5 mM KCl, 2 mM MgCl2, 2 mM CaCl2, 10 mM HEPES, 20 mM D-glucose, 2 mM probenecid, 100 μl/well) and cells were incubated at 37° C. in a humidified incubator in an atmosphere of 5% CO2/95% air for 40-120 min. To stop dye loading cells were washed twice with assay buffer. After washing, various concentrations of the test compounds (diluted in extracellular medium from a DMSO stock solution, final DMSO concentration was <0.1%) or buffer were added to each well depending on the experimental setup. After incubation at 37° C. for 20-25 min. baseline and agonist-evoked changes of [Ca^2+]i were measured column by column with a plate reader fluorimeter (Fluoroskan Ascent, Labsystems). Excitation and detection of emission was carried out from the bottom of the plate. Filters used for Fluo-4: excitation filter—485 nm, emission filter—538 nm. The whole measurement process was performed at 37° C. and was controlled by custom software Inhibitory potency of the test compounds was assessed by measuring the reduction in the agonist-evoked [Ca^2+]i-elevation in the presence of different concentrations of the compounds. The agonists were LysDABK for CHO-B1, and bradykinin for CHO-B2 cells. Agonists were applied at an EC80 concentration, the EC80-values were derived from daily determined dose-response curves. Fluorescence data were expressed as ΔF/F (fluorescence change normalized to baseline). All treatments on a single plate were measured in multiple wells. Data from all wells with the same treatment were averaged and the average values were used for analysis. Inhibitory potency of a compound at a single concentration point was expressed as percent inhibition of the control agonist response. Sigmoidal concentration-inhibition curves were fitted to the data (derived from at least three independent experiments) and IC50-values were determined as the concentration that produces half of the maximal inhibition caused by the compound.

The target of assay [2] is T2, human recombinant bradykinin B1 receptor (Homo sapiens, UniProt P46663).
T2 construct: host or cells: CHO cells
T2 sequence (P46663 1-353): T1 sequence (P46663 1-353)
Nature of the assay: Human recombinant bradykinin B1 receptor binding. How it is done: 1. Human Recombinant Bradykinin B1 Receptor Binding
Binding assays were carried out on human recombinant bradykinin) receptors (expressed in CHO cells) according to the Euroscreen Technical Data Sheet (Cat.No.:ES-091). 20 μg protein/tube was incubated with [3,4-prolyl-3,4-^3H(N)]-[Des-Arg^10] Kallidin as radioligand. Non specific binding was determined in the presence of 10 μM Lys-des-Arg^9-Bradykinin. The final incubation volume was 250 μl. Samples were incubated for 15 min. at 25° C. then were rapidly vacuum filtered through GF/B filters presoaked for at least 1 h in 0.5% PEI. Radioactivity was determined by liquid scintillation spectroscopy.

Where [3] appears, read: CHO-B1 cells, inhibition of LysDABK (EC80)-evoked [Ca2+]i elevation, read-out: B1 func.
The mark [4] stands for this setting: CHO cell membranes, [3H]-[Des-Arg10] Kallidin radioligand, read-out: B1 binding.

This is an account of results in patent US20130029991A1, “New Phenylsulfamoyl Benzamide Derivatives as Bradykinin Antagonists” (priority 2006, published 2013).

pIC50, pKi: −log10 of the molar value. Counter-ions that a name gives are not always drawn. Like-named read-outs stand apart in the source and are kept apart here.

Regarding `O=C(CNC(=O)c1ccc(S(=O)(=O)Nc2ccccc2Oc2ccc(Cl)cc2Cl)cc1)NC1CCC(N2CCCCC2)CC1` (centres unmarked) [Example 62, 4-[2-(2,4-Dichloro-phenoxy)-phenylsulfamoyl]-N-[(4-piperidin-1-yl-cyclohexyl-carbamoyl)-methyl]-benzamide], the pIC50 in assay [1] (setting [3]) is more than 7.70. Moreover, in assay [2] (setting [4]), the pKi was more than 7.70.

`O=C(CNC(=O)c1ccc(S(=O)(=O)Nc2ccccc2Oc2ccc(Cl)cc2Cl)cc1)NCCCCN1CCCCC1` [Example 63, 4-[2-(2,4-Dichloro-phenoxy)-phenylsulfamoyl]-N-[(4-piperidin-1-yl-butylcarbamoyl)-methyl]-benzamide]: the pIC50 in assay [1] (setting [3]) was more than 7.70. The pKi in assay [2] (setting [4]) was more than 7.70.

For the compound `O=C(CNC(=O)c1ccc(S(=O)(=O)Nc2ccccc2Oc2ccccc2)cc1)NC1CCNCC1` [Example 66, 4-(2-Phenoxy-phenylsulfamoyl)-N-(piperidin-4-ylcarbamoylmethyl)-benzamide hydrochloride], in assay [1] (setting [3]), the pIC50 is more than 7.70. Besides, the pKi in assay [2] (setting [4]) is more than 7.70.

For `CCCN1C(=O)[C@H](NC(=O)Nc2ccc(N3CCC(N4CCCCC4)CC3)cc2)N=C(c2ccc(C)cc2)c2ccccc21` [N-[4-(,4′-bipiperidin)-1′-ylphenyl]-N′-[(3R)-2,3-dihydro-5-(4-methyl-phenyl)-2-oxo-1-propyl-1H-1,4-benzodiazepin-3-yl]-urea, reference compound], the pIC50 in assay [1] (reference compounds, functional test, read-out: IC50) was 7.19. In assay [2] (reference compounds, binding test, read-out: Ki), the pKi was 7.87.
